Measurements published in PMC6753678, “Fueling Open Innovation for Malaria Transmission-Blocking Drugs: Hundreds of Molecules Targeting Early Parasite Mosquito Stages” (Frontiers in Microbiology, 2019).
Where two headings read alike, the source gives them in different places.

Legend:
[1] = tested on: 3D7-strain P. falciparum asexual parasites; test: P. falciparum asexual growth inhibition assay (Pf GIA); assay type: cell-based, Plasmodium falciparum
In short: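 Steps: seed parasites (0.25% parasitemia, 2% hematocrit) onto compound dilutions; incubate 72 h at 37°C, 5% O2/5% CO2; freeze at −70°C and thaw; add LDH reaction mix, read A650 after 10 min. Percent growth inhibition derived from chloroquine and DMSO controls, averaged over three biological replicates.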

HepG2 cells [2] = settings: cited from earlier work
[3] = tested on: P. falciparum late stage (stages IV-V) gametocytes; parameters: method as in Almela et al 2016; settings: ref Almela et al 2016, read-out: Pf GCT ATP IC50, cited from earlier work
[4] = tested on: P. berghei ookinete development; settings: for % inhibition, Replicate A / % inhibition, Replicate B: primary screen at 1 μM
[5] = tested on: P. falciparum late stage (stages IV-V) gametocytes; test: P. falciparum late stage gametocyte ATP depletion assay (Pf GC-ATP); settings: 1: YES; 0: NO
HepG2 cells [6] = test: HepG2 cytotoxicity assay; settings: for IC50: read-out: HepG2 cytotoxicity assay IC50, dose response confirmation; for HepG2 cytoxicity: value reported with the Pb ODA screen
In short: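 Percent inhibition derived from fluorescent viability readout, normalised to DMSO (negative) and 50 μM doxorubicin (positive). Compound incubation lasted 48 h at 37°C, 5% CO2, with 2,500 HepG2 cells/well in MEM plus 10% FBS and 1% NEAA.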

[7] = tested on: P. falciparum female gametocytes; test: P. falciparum female gametogenesis assay (Pf FGAA); settings: 1: YES; 0: NO
[8] = tested on: P. falciparum female gametocytes; parameters: method as in Miguel-Blanco et al 2017; settings: ref Miguel-Blanco et al 2017, read-out: Pf FGAA IC50, cited from earlier work
[9] = tested on: P. berghei ookinete development; test: microbe, parasite or virus in culture; settings: Plasmodium berghei
[10] = dose response confirmation, read-out: Pf asexual growth inhibition assays IC50
[11] = read-out: Pb ODA IC50, this manuscript
[12] = read-out: Pb Ookinete development assay IC50, dose response confirmation
[13] = value reported with the Pf FGAA screen, ref Miguel-Blanco et al 2017
[14] = value reported with the Pf GCT ATP screen, ref Almela et al 2016
[15] = HepG2 cytotoxicity unified across the three screens

## Cl.c1ccc2c(NCCCCCCCCCNc3c4ccccc4nc4ccccc34)c3ccccc3nc2c1 [TCMDC-124286]
[1]; [10]
  IC50: 349 nM
HepG2 cells [2]; HepG2, ref Almela et al 2016
  HepG2 cytoxicity (Pf GCT ATP screen): 6.1 µM
HepG2 cells [2]; HepG2, ref Miguel-Blanco et al 2017
  HepG2 cytoxicity (Pf FGAA screen): 4.90 µM
[3]
  IC50: 1500 nM
[4]; 1: YES, 0: NO
  Is compound selective in assay? Pb ODA active?: 0 (0: NO)
[4]
  % inhibition, Replicate A: 34.80%
  % inhibition, Replicate B: 55.23%
[4]; [11]
  IC50: 2030 nM
[4]; [12]
  IC50: 2030 nM
[5]
  Is compound selective in assay? Pf GC-ATP active?: 0 (0: NO)
HepG2 cells [6]; HepG2, this manuscript
  HepG2 cytoxicity (Pb ODA, this manuscript): 5.50 µM
HepG2 cells [6]; HepG2 values of the three screens unified
  Unified cytotox: 5.50 µM
HepG2 cells [6]
  IC50: 5500 nM
[7]
  Is compound selective in assay? Pf FGAA active?: 0 (0: NO)
[8]
  IC50: 1800 nM

## C[C@@H]1C[C@@H]([C@H](O)CC2CC(=O)NC(=O)C2)C(=O)[C@@H](C)C1 [TCMDC-125838]
[1]; Plasmodium falciparum, 3D7, read-out: Pf asexual growth inhibition assays IC50
  IC50: 596 nM
[4]
  Is compound selective in assay? Pb ODA active?: 1 (key: 1: YES; 0: NO)
[9]; read-out: % inhibition, Replicate A
  inhibition at 1 µM: 110%
[9]; read-out: % inhibition, Replicate B
  inhibition at 1 µM: 117%
[9]; read-out: Pb ODA IC50 (µM)
  IC50: 0.11 µM
[9]; read-out: Pb Ookinete development assay IC50
  IC50: 0.109 µM
HepG2 cells [6]
  IC50: 100000 nM
HepG2 cells [6]; unified HepG2 value across the three screens
  Unified cytotox: 100.00 µM

## CCc1c(CCNCCCCCCNCCc2ccc([N+](=O)[O-])cc2)ccc(OC)c1OC.Cl [TCMDC-132066]
[1]; [10]
  IC50: 675 nM
HepG2 cells [2]; [13]
  HepG2 cytoxicity: 4.57 µM
HepG2 cells [2]; [14]
  HepG2 cytoxicity: 6.67 µM
[3]; TCAMS screen comparison
  IC50: 540 nM
[4]; 1: YES, 0: NO
  Is compound selective in assay? Pb ODA active?: 0 (0: NO)
[4]
  % inhibition, Replicate A: 25.72%
  % inhibition, Replicate B: 55.23%
[4]; [11]
  IC50: 6610 nM
[4]; [12]
  IC50: 6600 nM
[5]
  Is compound selective in assay? Pf GC-ATP active?: 1 (1: YES)
HepG2 cells [6]; [15]
  Unified cytotox: 5.46 µM
HepG2 cells [6]
  IC50: 5130 nM
HepG2 cells [6]; this manuscript
  HepG2 cytoxicity: 5.13 µM
[7]
  Is compound selective in assay? Pf FGAA active?: 0 (0: NO)
[8]; TCAMS screen comparison
  IC50: 1460 nM

## COc1cc(-c2cc(-c3ccc(S(C)(=O)=O)cc3)cnc2N)ccc1O [TCMDC-133343]
[1]; [10]
  IC50: 242 nM
HepG2 cells [2]; [13]
  HepG2 cytoxicity: 41.69 µM
HepG2 cells [2]; [14]
  HepG2 cytoxicity: >25 µM
[3]; TCAMS screen comparison
  IC50: 1240 nM
[4]; 1: YES, 0: NO
  Is compound selective in assay? Pb ODA active?: 1 (1: YES)
[4]
  % inhibition, Replicate A: 63.88%
  % inhibition, Replicate B: 36.72%
[4]; [11]
  IC50: 2110 nM
[4]; [12]
  IC50: 2110 nM
[5]
  Is compound selective in assay? Pf GC-ATP active?: 1 (1: YES)
HepG2 cells [6]; [15]
  Unified cytotox: 49.62 µM
HepG2 cells [6]
  IC50: 57500 nM
HepG2 cells [6]; this manuscript
  HepG2 cytoxicity: 57.54 µM
[7]
  Is compound selective in assay? Pf FGAA active?: 1 (1: YES)
[8]; TCAMS screen comparison
  IC50: 390 nM

## Cc1occc1C(=O)Nc1nc(-c2ccccn2)nc2ccsc12 [TCMDC-135244]
[1]; [10]
  IC50: 656 nM
HepG2 cells [2]; [13]
  HepG2 cytoxicity: >100 µM
HepG2 cells [2]; [14]
  HepG2 cytoxicity: <1.56 µM
[3]; TCAMS screen comparison
  IC50: 300 nM
[4]; 1: YES, 0: NO
  Is compound selective in assay? Pb ODA active?: 0 (0: NO)
[4]
  % inhibition, Replicate A: 79.17%
  % inhibition, Replicate B: 64.59%
[4]; [11]
  IC50: 1340 nM
[4]; [12]
  IC50: 1340 nM
[5]
  Is compound selective in assay? Pf GC-ATP active?: 0 (0: NO)
HepG2 cells [6]; [15]
  Unified cytotox: 0.87 µM
HepG2 cells [6]
  IC50: 870 nM
[7]
  Is compound selective in assay? Pf FGAA active?: 1 (1: YES)
[8]; TCAMS screen comparison
  IC50: 60 nM

## CC(=O)c1ccc2nc[nH]c(=O)c2c1 [TCMDC-138172]
[1]; [10]
  IC50: 287 nM
HepG2 cells [2]; [13]
  HepG2 cytoxicity: 6.24 µM
HepG2 cells [2]; [14]
  HepG2 cytoxicity: <1.56 µM
[3]; TCAMS screen comparison
  IC50: 400 nM
[4]; 1: YES, 0: NO
  Is compound selective in assay? Pb ODA active?: 0 (0: NO)
[4]
  % inhibition, Replicate A: 76.19%
  % inhibition, Replicate B: 65.80%
[4]; [11]
  IC50: 500 nM
[4]; [12]
  IC50: 503 nM
[5]
  Is compound selective in assay? Pf GC-ATP active?: 0 (0: NO)
HepG2 cells [6]; [15]
  Unified cytotox: 3.74 µM
HepG2 cells [6]
  IC50: 1240 nM
HepG2 cells [6]; this manuscript
  HepG2 cytoxicity: 1.24 µM
[7]
  Is compound selective in assay? Pf FGAA active?: 0 (0: NO)
[8]; TCAMS screen comparison
  IC50: 980 nM

## C=CCC1OC(=O)c2cc(OC)cc(OC)c21 (stereo not shown) [TCMDC-138677]
[1]; [10]
  IC50: 447 nM
HepG2 cells [2]; [13]
  HepG2 cytoxicity: 2.29 µM
HepG2 cells [2]; [14]
  HepG2 cytoxicity: <1.56 µM
[3]; TCAMS screen comparison
  IC50: 600 nM
[4]; 1: YES, 0: NO
  Is compound selective in assay? Pb ODA active?: 0 (0: NO)
[4]
  % inhibition, Replicate A: 53.73%
  % inhibition, Replicate B: 47.60%
[4]; [11]
  IC50: 2360 nM
[4]; [12]
  IC50: 2360 nM
[5]
  Is compound selective in assay? Pf GC-ATP active?: 0 (0: NO)
HepG2 cells [6]; [15]
  Unified cytotox: 2.43 µM
HepG2 cells [6]
  IC50: 2570 nM
HepG2 cells [6]; this manuscript
  HepG2 cytoxicity: 2.57 µM
[7]
  Is compound selective in assay? Pf FGAA active?: 0 (0: NO)
[8]; TCAMS screen comparison
  IC50: 360 nM

## CC1(C)CC(NCCCCCCCOc2ccc(OCc3ccccc3)cc2)CC(C)(C)N1.Cl [TCMDC-138958]
HepG2 cells [2]; [13]
  HepG2 cytoxicity: 2.75 µM
HepG2 cells [2]; [14]
  HepG2 cytoxicity: 3 µM
[3]; TCAMS screen comparison
  IC50: 680 nM
[4]
  % inhibition, Replicate A: 59.61%
  % inhibition, Replicate B: 10.57%
[5]
  Is compound selective in assay? Pf GC-ATP active?: 0 (0: NO)
HepG2 cells [6]; [15]
  Unified cytotox: 2.88 µM
[7]
  Is compound selective in assay? Pf FGAA active?: 0 (0: NO)
[8]; TCAMS screen comparison
  IC50: 1230 nM

## ON=C1CCc2cc(-c3cc(-c4ccc(OC5CCNCC5)cc4)oc3-c3ccncc3)ccc21 [TCMDC-141381]
[1]; [10]
  IC50: 123 nM
HepG2 cells [2]; [13]
  HepG2 cytoxicity: 5.01 µM
HepG2 cells [2]; [14]
  HepG2 cytoxicity: 7.5 µM
[3]; TCAMS screen comparison
  IC50: 270 nM
[4]; 1: YES, 0: NO
  Is compound selective in assay? Pb ODA active?: 0 (0: NO)
[4]
  % inhibition, Replicate A: 75.99%
  % inhibition, Replicate B: 61.54%
[4]; [11]
  IC50: 1410 nM
[4]; [12]
  IC50: 1410 nM
[5]
  Is compound selective in assay? Pf GC-ATP active?: 1 (1: YES)
HepG2 cells [6]; [15]
  Unified cytotox: 5.92 µM
HepG2 cells [6]
  IC50: 5250 nM
HepG2 cells [6]; this manuscript
  HepG2 cytoxicity: 5.25 µM
[7]
  Is compound selective in assay? Pf FGAA active?: 1 (1: YES)
[8]; TCAMS screen comparison
  IC50: 200 nM

## O=C(O)CCSSc1cccc[n+]1[O-] [TCMDC-141973]
[1]; [10]
  IC50: 1650 nM
HepG2 cells [2]; [13]
  HepG2 cytoxicity: 19.05 µM
HepG2 cells [2]; [14]
  HepG2 cytoxicity: 7.8 µM
[3]; TCAMS screen comparison
  IC50: 270 nM
[4]; 1: YES, 0: NO
  Is compound selective in assay? Pb ODA active?: 1 (1: YES)
[4]
  % inhibition, Replicate A: 62.58%
  % inhibition, Replicate B: 47.23%
[4]; [11]
  IC50: 1910 nM
[4]; [12]
  IC50: 1910 nM
[5]
  Is compound selective in assay? Pf GC-ATP active?: 1 (1: YES)
HepG2 cells [6]; [15]
  Unified cytotox: 19.25 µM
HepG2 cells [6]
  IC50: 30900 nM
HepG2 cells [6]; this manuscript
  HepG2 cytoxicity: 30.90 µM
[7]
  Is compound selective in assay? Pf FGAA active?: 1 (1: YES)
[8]; TCAMS screen comparison
  IC50: 40 nM
